Assay results reported in patent US11419841B2, “Uses of lipophenolic compounds” (Universite De Montpellier, priority 2017, dated 2022).
“Also recorded” adds a separate entry of the source.

Tests used:
MMP-9 [1] = target: T1, MMP-9 (Homo sapiens, UniProt P14780); experiment: MMP-9 activity in TNF-alpha activated THP-1 cell line (gelatin zymography); type: cell-based; settings: for inhibition of MMP-9 activity: 30 μM, 24 h, THP-1 activated with 10 ng/mL TNF-α, zymogram (FIG. 3); for dose-response effect on the inhibitory activity of MMP9: zymogram and curve (FIG. 4)
T1 construct: endogenous in cells
Description: THP-1 cells (human monocytic THP-1 cell line) were cultured in 10% heated inactivated FBS RPMI 1640 medium supplemented with penicillin G 100 units/mL and streptomycin 100 μg/mL purchased from Fisher Scientific™ (Illkirch-Graffenstaden, France).
THP-1 cells were seeded (3×10^5 cell/well) in 24-well plate with 10 ng/mL TNF-α with or without 30 μM of resveratrol derivatives dissolved in DMSO. After 24 hours incubation at 37° C., supernatant was collected and tested on zymography.
Low-serum (1%) RPMI-1640 medium was used for the assessment of MMP-9 activity on TNF-alpha activated THP-1 cell line 3×10^6 cell/mL. Firstly, resveratrol and its derived lipophenolic compounds were dissolve in DMSO, and incubated at a final concentration of 30 μM with 10 ng/mL TNF-alpha treated THP-1 in CO2 incubator chamber for 24 hours at 37° C. After incubation, cell suspension was centrifuged at 1200 r.p.m for five minutes, supernatant was recovered and stored at −80° C. for zymogram analysis.
The anti MMP-9 activity was assessed using gelatin zymography. In brief, the collected supernatants were loaded on 10% SDS-polyacrylamide gel electrophoresis (PAGE) supplemented with 1% gelatin without reducing agents. After separation, gels were washed three times with 2.5% Triton X-100 and incubated with gelatinase buffer (NaCl 200 mM, Tris Base 50 mM, CaCl2) 5 mM and ZnCl2 0.25 mM; pH 7.5), for 24 hr at 37° C. on an orbital shaker at 100 r.p.m/min. Gels were further stained for one hour with Commassie Blue-staining solution (0.025% Commassie Blue, 40% methanol and 10% acetic acid) followed by destaining with 20% methanol and 10% glacial acetic acid solution until the clear bands appearance. Gels were photographed and analyzed by GelAnalyzer 2010a™ software.

[2] = test system: HUVEC cells and THP-1 cell line; experiment: Cell viability assay (MTT assay); type: cell-based; settings: 10, 20, 40 μM, 72 h, MTT (FIG. 6)
Description: The MTT assay is a test used to evaluate the cytotoxicity of compounds.
The cytotoxicity assay was carried out as described by Mosmann (Mosmann 1983). HUVEC cells and THP-1 cell line (1×10^4 cell/well) were seeded in 96-well plate and incubated CO2 incubator chamber at 37° C. for 24 h. Cells were treated with serial dilutions of lipophenolic derivative of resveratrol at a final concentration of 10, 20, 40 and 80 μM, and plate was incubated for 72 hours. Supernatant was discarded and MTT-serum-free medium was added to each plate and incubated for three additional hours. The formed formazan blue crystals were further dissolved by addition of 100 μL of 10% SDS in 0.1 N HCl to each plate for 2 hours. The optical density was measured at 570 nm (reference filter 690 nm) using a TECAN™ plate reader. Lethal Concentration 50% (LC50) was calculated using GraphPad Prism v.5 software.

HUVEC monolayer = experiment: In vitro vascular permeability assay (FITC-dextran endothelial permeability assay); type: cell-based, human; settings: 10 μM, 100 ng/mL TNF-α, 24 h (FIG. 5)
Description: Human umbilical vascular endothelial cells (HUVECs) were cultured in low serum (1%) EndoGro™ medium kit purchased from Merck Millipore™ (Paris, France). TNF-α was purchased from PeproTech™ (Neuilly-Sur-Seine, France). The permeability of HUVEC monolayer seeded on collagen coated semi-permeable inserts was examined using in vitro vascular permeability assay kit, Millipore™ (Paris, France) according to the manufacturer protocol. Endothelial cells are seeded into the inserts and cultured until complete monolayer formation occurs. After forming confluent monolayer by seeding HUVECs (4×10^5 cells/insert) for 48 hours, medium was replaced with 100 ng/mL TNF-α in medium with and without MMP-9 inhibitors at 10 μM and incubated for 24 hours in CO2 chamber at 37° C. Lipophenolic derivatives of resveratrol were dissolved in DMSO, and SB-3CT (gelatinase inhibitor) was dissolved in DMSO. At the end of the permeability treatment, 150 μl FITC-dextran in media solution were incubated for 20 minutes at room temperature protected from light. FITC-dextran permeates the treated cell monolayer into the plate well. Permeation was stopped by removing the inserts and 100 μl were withdrawn from the receiving tray and added to 96-well opaque plate for fluorescence measurement. The resulting fluorescence in the plate well is measured and used as an indicator of the extent of monolayer permeability. […]

[3] = test system: TNF-α release by LPS-activated BV-2 microglia; experiment: TNF-α release by LPS-activated BV-2 microglia (AlphaLISA); type: cell-based, murine; settings: 30 μM, 24 h after LPS, BV2 cells, mean±SEM (FIG. 7)
Description: BV-2 cells that are derived from raf/myc-immortalised murine neonatal microglia are the most frequently used substitute for primary microglia (Blasi et al., 1990).
BV-2 cells were maintained in 75 cm2 culture flasks in Dulbecco's Modified Eagle's Medium (DMEM, Sigma) supplemented with 10% fetal bovine serum (FBS, Sigma) and 1% Penicillin-Streptomycin solution (Sigma), and cultured at 37° C. in a humidified atmosphere of 5% CO2.
BV-2 cells were plated on 24-well plates at a density of 10^5 cells per well. On the following day cells were subjected to different treatments. To study the effect of Resv-LA on TNF-alpha production by LPS activated BV-2 cells, the cells were incubated in medium containing 1 mg/ml LPS (Sigma-Aldrich) for 24 h, with or without Resv-LA (REV-LA) 30 μM.
Supernatants from untreated and treated cells were centrifuged at 5000 rpm for 5 minutes and assayed for their TNF-α contents using the TNF-α (mouse) AlphaLISA Detection Kit of Perkin-Elmer. TNF-α released was normalized by cell number and expressed as percentage of the maximal released obtained in the LPS-stimulated condition.
Data are expressed as mean±SEM. Statistical analysis of differences between groups was performed by using unpaired t-test/Mann-Whitney. […]

MMP-9 [4] = settings: Cheng et al. 2009, Gao et al. 2014; cited from earlier work
[5] = in vivo; Walle 2011, Chang et al. 2016; cited from earlier work

T1 sequence (P14780 94-707): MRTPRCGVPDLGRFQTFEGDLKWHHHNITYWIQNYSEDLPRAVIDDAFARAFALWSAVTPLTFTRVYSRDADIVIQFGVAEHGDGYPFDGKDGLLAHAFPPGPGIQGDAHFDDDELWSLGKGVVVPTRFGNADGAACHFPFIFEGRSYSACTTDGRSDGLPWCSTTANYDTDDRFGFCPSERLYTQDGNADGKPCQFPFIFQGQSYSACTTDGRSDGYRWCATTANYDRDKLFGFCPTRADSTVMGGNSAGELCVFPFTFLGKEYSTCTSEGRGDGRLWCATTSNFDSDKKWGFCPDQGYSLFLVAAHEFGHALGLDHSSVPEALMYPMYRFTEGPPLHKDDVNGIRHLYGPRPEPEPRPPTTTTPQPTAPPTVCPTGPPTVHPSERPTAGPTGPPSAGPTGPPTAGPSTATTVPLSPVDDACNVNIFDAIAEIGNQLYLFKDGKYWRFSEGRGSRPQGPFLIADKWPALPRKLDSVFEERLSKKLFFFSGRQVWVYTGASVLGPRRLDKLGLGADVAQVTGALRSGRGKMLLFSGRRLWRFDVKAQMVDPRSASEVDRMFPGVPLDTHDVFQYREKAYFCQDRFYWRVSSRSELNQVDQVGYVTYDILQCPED

Row | SMILES | inhibition of MMP-9 activity (MMP-9 [1]) | dose-response effect on the inhibitory activity of MMP9 (MMP-9 [1]) | cytotoxic effect on viability [2] | also measured
1 | CC/C=C\C/C=C\C/C=C\C/C=C\C/C=C\C/C=C\CCC(=O)Oc1ccc(/C=C/c2cc(O)cc(O)c2)cc1 [4′-Resv-DHA, (4,7,10,13,16,19 Z)-4-((E)-3,5-dihydroxyphenylstyryl)phenyl docosa-4,7,10,13,16,19-hexaenoate] | reduced MMP-9 activity | – | – | –
2 | CC/C=C\C/C=C\C/C=C\C/C=C\C/C=C\C/C=C\CCC(=O)Oc1cc(O)cc(/C=C/c2ccc(O)cc2)c1 [Compound 3-Resv-DHA, (4,7,10,13,16,19Z)-3-hydroxy-5-((E)-4-hydroxystyryl)phenyl docosa-4,7,10,13,16,19-hexaenoate] | did not show any inhibitory activity; also recorded: not active | – | – | –
3 | CCCCCCCCCCCCCCCCCCCCCC(=O)Oc1ccc(/C=C/c2cc(O)cc(O)c2)cc1 [Resv-C22, (E)-4-(3,5-dihydroxystyryl)phenyl docosanoate] | demonstrated inhibition of MMP9-activity | dose-response effect | does not have cytotoxic effect | –
4 | CCCCC/C=C\C/C=C\CCCCCCCC(=O)Oc1ccc(/C=C/c2cc(O)cc(O)c2)cc1 [Resv-LA, (9,12Z)-4-((E)-3,5-dihydroxystyryl)phenyl octadeca-9,12-dienoate] | best activity; also recorded: demonstrated inhibition of MMP9-activity | dose-response effect | does not have cytotoxic effect | inhibition of TNF-alpha-enhanced permeability of the HUVEC monolayer (HUVEC monolayer): demonstrated inhibition; TNF-α released, as percentage of the maximal released obtained in the LPS-stimulated condition [3]: 66.1±4.2 percentage
5 | Oc1ccc(C=Cc2cc(O)cc(O)c2)cc1 [Resveratrol] | – | – | – | inhibition of the activity of MMP-9 (reported) (MMP-9 [4]): inhibit the activity of MMP-9; bioavailability [5]: poor bioavailability
